“And” between values parts separate entries of the source, which are not always exact repeats. Identical values can stand only once. Like-named read-outs stand apart in the source and are kept apart here.

Experimental findings from PMC7561186, “Rational design of balanced dual-targeting antibiotics with limited resistance” (PLoS Biology, 2020) are described below.

For data set [1], the system named is S. aureus Mu50 (VISA) ATCC 700699. Nature of the data set: Neutropenic thigh infection model. The data set is classed as in vivo, CD-1 mice. The settings on record: for Log CFU/g thigh: neutropenic thigh infection, Staphylococcus aureus Mu50 ATCC 700699 (VISA), individual animals. The protocol:
Neutropenic mouse thigh infection experiments were performed on female CD-1 mice (Charles River Laboratories, USA). To induce neutropenia, mice received 2 doses of cyclophosphamide on days -4 and -1 with 150 mg/kg, and 100 mg/kg delivered intraperitoneally (IP), respectively. The inoculum of the testing strain, S. aureus Mu50 (VISA) ATCC 700699, was prepared from overnight agar plate cultures. To prepare bacterial inoculums, a portion of the plate was resuspended in sterile saline and adjusted to an OD of 0.12 at 625 nm. Next, the resulted bacterial suspension was further diluted to reach an infecting inoculum of 6.0×10^5 CFU per each mouse. Mice were inoculated with 100 μL of the prepared bacterial suspension via intramuscular injection into the right rear thigh. Plate counts of the inoculum were also performed in each case to confirm inoculum concentration and the actual inoculum size was 6.9×10^5 CFU/mouse. […] Test agent was then dosed via IV administration at 2, 8, 14, and 20 hours postinfection. Beginning at 2 hours, postinfection mice were dosed with either test article or positive control antibiotic. Mice receiving test agents were dosed intravenously at 10 mL/kg. Linezolid was delivered as a subcutaneous dose. Four animals were dosed per group. One group of 4 mice were euthanized at initiation of therapy (T = 2 hours) and CFUs determined. All remaining mice were euthanized at 26 hours postinfection. At termination, thighs were aseptically excised, weighed, and homogenized to a uniform consistency in 2 mL of sterile saline. The homogenate was serially diluted and plated on bacterial growth media. The CFUs were enumerated after overnight incubation.

Data set [2] has as its system Staphylococcus epidermidis. The experiment in a line: MIC, broth microdilution (CLSI). The data set is classed as cell-based. The settings on record: Staphylococcus epidermidis ATCC 51625, MRSE. For orientation: Broth dilution looks for growth in wells or tubes with falling amounts of substance.
In data set [3] the test system is S. aureus VISA ATCC 700699 GyrB / ParE mutants. Nature of the data set: MIC of spontaneous resistant mutants (single-step and second-step). The conditions noted are these: for MIC: Staphylococcus aureus. Type of data set: cell-based. The protocol: MICs were determined using a standard serial broth microdilution technique according to the CLSI guidelines. Briefly, bacterial strains were inoculated onto MHBII agar plates and were grown overnight at 37 °C. Next, 3 individual colonies from each strain were inoculated into 1 mL MHBII medium and propagated at 37 °C, 250 rpm overnight. In the cases of Enterococcus and Streptococcus sp., cells were plated to BHI agar plates, and BHI broth was used to determine MICs. […] Following dilutions, each well was seeded with 5×10^4 bacterial cells. All measurements were performed in 3 parallel replicates and to avoid possible edge effects in microwell plates, side rows (A and H) were filled with sterile medium. Following inoculations, plates were covered with lids and wrapped in polyethylene plastic bags to minimize evaporation but allow for O2 transfer. Plates were incubated at 37 °C under continuous shaking at 150 rpm for 18 hours. After incubation, OD600 of each well was measured using a BioTek Synergy 2 microplate reader.

Data set [4] deals with S. aureus USA300 (MRSA) BAA1556, S. aureus (VRSA) ECL2963646, S. aureus Mu50 (VISA) ATCC 700699. The experiment in a line: S. aureus dermal infection model. Type of data set: in vivo, ICR mice. The settings on record: for Log CFU/Skin: 2% treatment, individual animals; for antibacterial activity after topical application: mouse skin infection, ointment twice daily, MRSA, VISA, VRSA, comparable to mupirocin, in words. The protocol: The testing strains, S. aureus USA300 (MRSA) BAA1556, S. aureus (VRSA) ECL2963646, and S. aureus Mu50 (VISA) ATCC 700699 were obtained from frozen stocks and thawed at room temperature. Next, an aliquot of 0.2 mL from each stock was transferred to 20 mL BHI broth and incubated at 37 °C with shaking (120 rpm) for 8 hours. Cells in 20 mL culture were pelleted by centrifugation, 3,500g for 15 minutes, and then resuspended in 10 mL cold PBS, then cells were diluted in PBS to obtain the inoculum sizes of 1×10^5 or 1× 10^6 CFU/mL, based on the testing strain’s virulence. In all cases, the actual colony counts were determined by plating dilutions in at least 3 replicates onto MHBII agar plates followed by 24 hours’ incubation and colony counting.
For dermal infections, groups of 5 female ICR mice weighing 24 ± 4 g, provided by BioLasco Taiwan (under a Charles River Laboratories Technology Licensee), were used. Animals were acclimated for 3 days prior to use and were confirmed to be in good health. Prior to infection, animals were anesthetized with etomidate-lipuro emulsion (20 mg /10 mL) at 20 mg/kg by IV injection, and then the fur on the back was removed by an electric shaver, and the epidermal layer was disrupted with an abrasive paper according to the protocol developed by Kugelberg and colleagues. Mice were inoculated topically on the wound area with testing strain suspension, 5 μL/mouse. The target inoculation densities were 1×10^5 or 1× 10^6 CFU/mL, based on the corresponding strain’s virulence. Following infection, animals were housed separately. […] Test articles were administered topically (20 μL/mouse) twice daily. One no-treatment group was euthanized at 1 hour after infection for initial bacterial counts, and the other treatment groups were dosed twice daily with the test compounds and sacrificed either at 25 hours or at 73 hours postinfection. Animals were euthanized with CO2 asphyxiation and the infected skin, a 2 cm^2 area, was excised. The skin samples of the wound infection (around 2 cm^2 areas) were then homogenized in 1 mL PBS (pH 7.4) with a polytron homogenizer. A 0.1 mL aliquot of each homogenate was used for serial 10-fold dilutions and plated onto MHBII agar plates for bacterial enumeration. Statistical significance (P <0.05) was assessed with 1-way ANOVA followed by Dunnett’s method. A significant (P <0.05) decrease in the bacterial counts of the treated animals compared with the vehicle control group was considered significant antimicrobial activity.

A further data set concerns HepG2 cells. The conditions noted are these: LDH assay.
The mark [5] stands for this setting: second-step mutant, selection ULD1 at 16× MIC, GyrB I175T, ParE A120D.
Setting [6] is: second-step mutant, selection ULD1 at 16× MIC, GyrB I175T, ParE F95Y.
Where [7] appears, read: second-step mutant, selection ULD1 at 16× MIC, GyrB I175T, ParE T166A.
Setting [8] is: second-step mutant, selection ULD1 at 16× MIC, GyrB I175T, ParE T166I.
[9] abbreviates: second-step mutant, selection ULD1 at 16× MIC, GyrB R144I, ParE A120D.
The mark [10] stands for this setting: second-step mutant, selection ULD1 at 16× MIC, GyrB R144I, ParE F95Y.
The mark [11] stands for this setting: second-step mutant, selection ULD1 at 16× MIC, GyrB R144I, ParE R136G.
[12] abbreviates: second-step mutant, selection ULD2 at 8× MIC, GyrB I175T, ParE A120D.
The mark [13] stands for this setting: second-step mutant, selection ULD2 at 12× MIC, GyrB R144I, ParE A120D.
Setting [14] is: second-step mutant, selection ULD2 at 12× MIC, GyrB R144I, ParE F95Y.
Setting [15] is: second-step mutant, selection ULD2 at 12× MIC, GyrB R144I, ParE R136G.
[16] abbreviates: Staphylococcus aureus ECL 2963646 (VRSA).
Where [17] appears, read: Staphylococcus aureus Mu50 ATCC 700699 (VISA).
The mark [18] stands for this setting: Staphylococcus aureus USA300 (MRSA).

Procedure for HepG2 cells: Cytotoxicity of compounds on HepG2 and MCF-7 mammalian cell lines was determined by using a standard LDH assay. Briefly, HepG2 and MCF-7 cells were cultured in Eagle’s MEM medium (from Gibco) supplemented with 2 mM L-glutamine (Sigma), 100 U/mL penicillin (Sigma), and 100 μg/mL streptomycin (Sigma), and 10% FBS (Gibco) at 37 °C and under 5% CO2. Next, LDH assays were performed according to manufacturer instructions (Thermo Fisher Scientific, Massachusetts, USA). By using a CyQUANT LDH Cytotoxicity Assay Kit. Firstly, the cells were seeded in 96-well microtiter plates at 10^5 cells/mL (100 μL/well) and allowed to attach overnight. […] Lysis buffer (10 μL, Thermo Fisher Scientific) was then added to the maximal LDH activity control wells and incubated additional 45 minutes. The cell culture supernatant (50 μL) was then transferred to a new 96-well plate and mixed with 50 μL of the reaction mixture. After 30 minutes on room temperature, reactions were stopped with 50 μL of the Stop solution. Absorbance (490 nm and 680 nm) was measured with the automatic microplate reader Synergy 4 Hybrid Microplate Reader (BioTek, VT, USA). All experiments were performed in triplicates and repeated 3 times. Statistical significance (P < 0.05) was calculated with 2-tailed Welch’s t-test between treated groups and DMSO. The percentage of cytotoxicity was determined according to the following equation: %Cytotoxicity=(CompoundtreatedLDHactivity-SpontaneousLDHactivity/MaximumLDHactivity-SpontaneousLDHactivity)*100

On to `CC(=O)NC[C@H]1CN(c2ccc(N3CCOCC3)c(F)c2)C(=O)O1` [Linezolid], for which, in data set [1] (50 mg/kg), the “Log CFU/g thigh” value is 5.65 Log CFU/g thigh and 6.12 Log CFU/g thigh and 4.95 Log CFU/g thigh.
As a reminder, the MIC is the lowest concentration found to suppress growth. With `Cc1[nH]c(C(=O)Nc2nc3ccc(C(=O)O)cc3s2)c(Cl)c1Cl` [ULD1], the MIC in data set [2] stood at 0.0625 µg/mL; in data set [3] (VISA GyrB I175T) it was 0.198 µg/mL; in data set [3] (VISA GyrB R144G), 0.132 µg/mL; in data set [3] (VISA GyrB R144I), 0.198 µg/mL; in data set [3] (VISA wt, read-out: MIC), 0.04 µg/mL; in data set [3] (setting [5]), 4 µg/mL. Besides, the MIC in data set [3] (setting [6]) amounted to 4 µg/mL; in data set [3] (second-step mutant, selection ULD1 at 16× MIC, GyrB I175T, ParE R136G), 4 µg/mL; in data set [3] (setting [7]), 2 µg/mL; in data set [3] (setting [8]) it was 2 µg/mL; in data set [3] (setting [9]), 2 µg/mL; in data set [3] (setting [10]), 2 µg/mL. Also, the MIC in data set [3] (setting [11]) amounted to 2 µg/mL; in data set [3] (setting [12]), 4 µg/mL; in data set [3] (setting [13]), 2 µg/mL; in data set [3] (setting [14]) it was 2 µg/mL; in data set [3] (setting [15]) it was 4 µg/mL. For the same compound, the “Log CFU/Skin” value in data set [4] (setting [16]) was 5.77 Log CFU/Skin and 5.81 Log CFU/Skin and 5.92 Log CFU/Skin and 6.59 Log CFU/Skin and 5.61 Log CFU/Skin; in data set [4] (setting [17]) it was 5 Log CFU/Skin and 5.57 Log CFU/Skin and 5.65 Log CFU/Skin and 4.91 Log CFU/Skin and 5.98 Log CFU/Skin; in data set [4] (setting [18]) it was 4.61 Log CFU/Skin and 3.68 Log CFU/Skin and 4.97 Log CFU/Skin and 3.75 Log CFU/Skin and 4.86 Log CFU/Skin. Moreover, in data set [4], the “antibacterial activity after topical application” value is given as “potent antibacterial activity”. For the same compound, the “antibacterial activity after intravenous administration” value in data set [1] (neutropenic murine thigh infection, S. aureus VISA, comparable to linezolid, in words) is on record as “potent antibacterial activity”. Moreover, the “Log CFU/g thigh” value was 7.54 Log CFU/g thigh and 7.91 Log CFU/g thigh and 8.09 Log CFU/g thigh and 8.46 Log CFU/g thigh in data set [1] (10 mg/kg); 6.73 Log CFU/g thigh and 6.88 Log CFU/g thigh and 7.28 Log CFU/g thigh and 6.95 Log CFU/g thigh in data set [1] (25 mg/kg); 5.41 Log CFU/g thigh and 5.69 Log CFU/g thigh in data set [1] (50 mg/kg). Moreover, the “Max. % inhibition at 100 µM” value with HepG2 cells was “Max. % inhibition at 100 µM: 1.53%”.
For `Cc1[nH]c(C(=O)Nc2nc3c(OCc4ccccc4)cc(C(=O)O)cc3s2)c(Cl)c1Cl` [ULD2], the MIC in data set [3] (VISA GyrB I175T) was found to be 0.088 µg/mL; in data set [3] (VISA GyrB R144G), 0.058 µg/mL; in data set [3] (VISA GyrB R144I), 0.058 µg/mL; in data set [3] (VISA wt, read-out: MIC), 0.02 µg/mL; in data set [3] (setting [5]), 0.25 µg/mL; in data set [3] (setting [6]), 0.25 µg/mL. The MIC in data set [3] (setting [7]) stood at 0.125 µg/mL; in data set [3] (setting [8]) it was 0.25 µg/mL; in data set [3] (setting [9]), 0.25 µg/mL; in data set [3] (setting [10]), 0.125 µg/mL; in data set [3] (setting [11]) it was 0.25 µg/mL; in data set [3] (second-step mutant, selection ULD1 at 16× MIC, GyrB R144I, ParE R136L), 0.125 µg/mL. In addition, the MIC in data set [3] (setting [12]) was 1 µg/mL; in data set [3] (setting [13]), 0.125 µg/mL; in data set [3] (setting [14]) it was 0.25 µg/mL; in data set [3] (setting [15]) it was 0.25 µg/mL. Besides, the “concentration inhibiting all isolated double mutants and laboratory evolved strains” value in data set [3] ({}) is no more than 1 µg/mL. In addition, the “concentration inhibiting all isolated second-step resistant mutants” value in data set [3] ({}) is no more than 1 µg/mL. Moreover, the “Log CFU/Skin” value is 5.96 Log CFU/Skin and 5.93 Log CFU/Skin and 5.51 Log CFU/Skin and 5.91 Log CFU/Skin and 5.45 Log CFU/Skin in data set [4] (setting [16]); 4.76 Log CFU/Skin and 5.44 Log CFU/Skin and 5.93 Log CFU/Skin and 4.96 Log CFU/Skin and 5.73 Log CFU/Skin in data set [4] (setting [17]); 4.14 Log CFU/Skin and 4.81 Log CFU/Skin and 5.33 Log CFU/Skin and 6.64 Log CFU/Skin and 5.97 Log CFU/Skin in data set [4] (setting [18]). Further, the “antibacterial activity after topical application” value in data set [4] was “potent antibacterial activity”. Also, the “Max. % inhibition at 100 µM” value in the data set on HepG2 cells is “Max. % inhibition at 100 µM: 1.96%”.
